In patent publication US5045222A, “Use of triacylated ethanolamines as liquid, water-miscible peroxide activators” (Hoechst Aktiengesellschaft, priority 1988, dated 1991):

Experiments:
[1] = Washing tests in Launder-O-meter at room temperature, tea stain; details: 25° C.
[2] = Wash tests in Launder-O-meter at 60° C., tea stain
[3] = Perhydrolysis rate of dissolved activator (titration of total active oxygen and peracid); details: for time required for 90% conversion of activator: predissolved activator; for Perhydrolysis rate / release of peracid: in words, with hydrogen peroxide or percompounds
Experimental: The experimental determination of the perhydrolysis rate of the activators TAEA (triacetylethanolamine), TAED (tetraacetylethylenediamine) and isonobs (sodium isononanoyloxybenzenesulfonate) was carried out under wash conditions in a 2 1 beaker in a thermostat. An electrical stirrer ensured uniform stirring of a 2 percent strength solution of an IEC standard detergent composition, to which perborate had been added together with 20 ml of a cherry juice solution as a bleachable stain.
The activators were predissolved in a little water and added to the abovementioned temperature controlled washing liquor. At each set time interval (1-5 minutes) a 50 ml sample was removed and titrated for total active oxygen and peracid.
pH dependence of perhydrolysis of dissolved bleach activators at 22° C.; time required [min] for 90% conversion of activator: […]

[4] = Determination of the water solubility of activators; format: physicochemical; details: for Water solubility / miscibility with water (words): in words, temperature not stated
Experimental: The water solubility of N,N,O-triacetylethanolamine (TAEA) and ethylidene benzoate acetate (EBA) was determined by known methods.

[5] = background discussion; cited from earlier work

sodium perborate [PB]
Reflectance ([1]; tea stain, 15 minutes, 3% activator and 10% sodium perborate): 52.8 | Reflectance values ([2]; tea stain, 30 minutes, 25 mg active oxygen per liter, 1.5 g IEC basic washing powder per liter): 62.9

CC(=O)N(CCN(C(C)=O)C(C)=O)C(C)=O [TAED, tetraacetylethylenediamine]
time required for 90% conversion of activator ([3]; pH 9, 22° C.): 15 min | time required for 90% conversion of activator ([3]; pH 10, 22° C.): 7 min | time required for 90% conversion of activator ([3]; pH 11, 22° C.): 1 min

CC(=O)OCCN(C(C)=O)C(C)=O [TAEA, N,N,O-triacetylethanolamine]
Perhydrolysis rate / release of peracid [3]: releases one mole of peracetic acid very rapidly, in fact as rapidly as predissolved TAED | Perhydrolysis rate / release of peracid ([3]; listed as Triacetylethanolamine (TAEA)): readily reacts in aqueous solution with hydrogen peroxide or inorganic persalts to form peracetic acid | time required for 90% conversion of activator ([3]; pH 9, 22° C.): 12 min | time required for 90% conversion of activator ([3]; pH 10, 22° C.): 7 min | time required for 90% conversion of activator ([3]; pH 11, 22° C.): 1 min | bleaching effect ([1]; tea and red wine stains): superior bleaching effect | bleaching performance ([2]; tea and red wine stains): superior in bleaching performance to previously known EDA and to non-liquid DALEA | Water solubility (infinite, unit not given) ([4]; 23° C.): .infin. | Water solubility (infinite, unit not given) ([4]; 37° C.): .infin. | Water solubility / miscibility with water (words) [4]: complete miscibility of the compound with water | Water solubility / miscibility with water (words) ([4]; listed as triacetylethanolamine): has the best water solubility and is miscible with water in any proportion

CC(=O)OC(C)OC(=O)c1ccccc1 (stereo not shown) [EBA, ethylidene benzoate acetate]
Solubility in water (words, prior-art activator) [5]: limited solubility in water | Water solubility ([4]; 23° C.): 700 µg/mL | Water solubility ([4]; 37° C.): 800 µg/mL

CC(CC(=O)Oc1ccc(S(=O)(=O)[O-])cc1)CC(C)(C)C.[Na+] (stereo not shown) [Isonobs, sodium isononanoyloxybenzenesulfonate]
time required for 90% conversion of activator ([3]; pH 9, 22° C.): > 30 min | time required for 90% conversion of activator ([3]; pH 10, 22° C.): 11 min | time required for 90% conversion of activator ([3]; pH 11, 22° C.): 1.5 min
